According to patent publication US20250160366A1, “MEANS AND METHODS FOR MODULATING SECONDARY METABOLITE IN AN ANIMAL” (DSM IP Assets B.V., priority 2022, published 2025):

Legend:
[1] = in mice; cited from earlier work
[2] = GABA supplementation at 30 g/MT; Li et al. 2015, Bi et al. 2020; cited from earlier work
[3] = OP at 1000 mg/kg feed, positive control 30 g GABA per ton of feed

SMILES: NCCCC(=O)O [GABA, Gamma-aminobutyric acid]
- half-life of GABA in the body [1]: less than 17 min
- biting incidences [2]: lower
- growth performance [2]: increase
- stress-related parameters [2]: improve
- fold change (compared to day 0) of plasma COR as stress indicator [3]: 0.70
- fold change (compared to day 0) of plasma NPY as stress-resistance indicator [3]: 0.51
- plasma GABA fold change compared to day 0 ([3]; day 12): 1.07
